Results from patent US7189761B2, “Nitric oxide donor composition and method for treatment of anal disorders” (priority 1994, dated 2007).
Where two headings read alike, the source gives them in different places. Ends that are not written are not given here.

Legend:
[1] = system: human internal anal sphincter muscle strips; conditions: cited from earlier work; for effect on relaxations produced by transmural field stimulation: in the presence of atropine and guanethidine
[2] = system: internal anal sphincter (IAS); conditions: cited from earlier work; for reversal of the L-NNA suppression of rectoanal reflex-induced IAS relaxation: in vivo; for effect on the decrease in IAS resting pressures in response to the rectoanal reflex: reflex mimicked by rectal balloon distention
[3] = system: smooth muscle strips of the internal anal sphincter (IAS); conditions: cited from earlier work
anal fissure = assay: Case reports: topical ointment in patients with anal fissure; assay type: in vivo, human; conditions: person, superficial posterior midline anal fissure, patient history
Experimental: The patient rated their pre-treatment pain 7/10. The patient applied approximately 500 mg of the ointment as prepared in Example 1, three times daily and after bowel movements. The patient reported that their pain was gone following initial application.
The patient rated their pre-treatment pain 7/10. The patient applied approximately 500 mg of the ointment as prepared in Example 1, three times daily and after bowel movements. […] After three weeks of treatment, the fissure was healed, and the pain was gone.
They had previously failed a course of hydrocortisone therapy. Pre-treatment pain was rated 9/10. The patient was treated with approximately 500 mg of the preparation of Example 1, three times daily and after bowel movements. After one week of treatment, the fissure was still present, and pain was rated 8/10. The patient was then treated with approximately 500 mg of the preparation of Example 2, three times daily and after bowel movements. Following one week of therapy with the ointment as of Example 2, the patient reported no pain and no bleeding.
Pre-treatment pain was rated 4/10. The patient was treated with the ointment as of Example 2, approximately 500 mg three times daily and after bowel movements. Following one week of therapy, the patient reported that their pain had diminished, and it was rated 2/10. […]

[4] = isolated IAS smooth muscle strips
[5] = response to lower frequencies of EFS and DMPP

N=C(N)NCCC[C@@H](N)C(=O)O [D-arginine]
reversal of the inhibitory effects of NO synthase antagonists [1]: did not reverse | reversal of the L-NNA suppression of rectoanal reflex-induced IAS relaxation [2]: failed to reverse | reversal of the loss of NO release and IAS relaxation [3]: no significant effect

CC(C)NCC(O)c1ccc(O)c(O)c1 (centres unmarked) [isoproterenol]
effect on the resting pressure of the IAS ([2]; not modified by L-NNA): decrease | IAS relaxation and release of NO [3, 4]: caused IAS relaxation without any increase in NO release

C[N+]1(C)CCN(c2ccccc2)CC1 [DMPP, 1,1-dimethyl-4-phenylpiperazinium]
IAS relaxation and release of NO [3]: caused IAS relaxation with an accompanying release of NO

N=C(N)NCCC[C@H](N)C(=O)O [L-arginine]
reversal of the inhibitory effects of NO synthase antagonists [1]: reversed | reversal of the L-NNA suppression of rectoanal reflex-induced IAS relaxation [2]: completely reversed | reversal of the loss of NO release and IAS relaxation [3]: reversed to control levels

NC1=N[C@H](O)[C@H]2[C@H]3O[C@]4(O)O[C@@H]([C@@H](O)[C@@]2(N1)[C@@H]4O)[C@]3(O)CO [tetrodotoxin]
effect of pretreatment on NO release and fall in IAS resting tension [3]: abolished

vasoactive intestinal polypeptide: vasoactive intestinal polypeptide (HSDAVFTDNYTRLRKQMAVKKYLNSILN; ends and bridges not checked; UniProt P01282 125-152, looked up)
IAS relaxation and release of NO [3, 4]: release of NO

C[C@]12CCC(=O)C=C1CC[C@@H]1[C@@H]2[C@@H](O)C[C@@]2(C)[C@H]1CC[C@]2(O)C(=O)CO [hydrocortisone, 11-17-21-trihydroxypregn-4-ene-3,20-dione]
outcome of previous course of therapy (anal fissure): failed

atrial natriuretic factor
IAS relaxation and release of NO [3, 4]: caused IAS relaxation without any increase in NO release

NC(=NCCC[C@@H](N)C(=O)O)N[N+](=O)[O-] [D-NNA]
effect on the decrease in IAS resting pressures in response to the rectoanal reflex [2]: no effect | effect of pretreatment on NO release and fall in IAS resting tension [3, 5]: no significant effect

N=C(NCCC[C@H](N)C(=O)O)N[N+](=O)[O-] [L-NNA, L-NG-nitro-arginine]
effect on relaxations produced by transmural field stimulation [1]: completely | effect on the decrease in IAS resting pressures in response to the rectoanal reflex [2]: significant dose-dependent suppression | effect on NO release caused by vasoactive intestinal polypeptide ([3]; IAS smooth muscle strips): abolished | effect of pretreatment on NO release and fall in IAS resting tension [3, 5]: abolished

oxyhaemoglobin
effect on relaxations produced by transmural field stimulation [1]: abolished
